The nature of data set [1]: Chemical reductant assay: GSH challenge (cell-free). The class given is physicochemical. Conditions: aq. TE buffer pH 7.4, 37° C., 6 h, GSH 0.01-10 mM. The source says:
(§1) This assay (see FIG. 1) examined the stability of disulfide-based reduction-triggered compounds of the invention when exposed to monothiol reductants, primarily the major physiological cellular monothiol GSH, and dithiol reductants like the disulfide reductant dithiothreitol (DTT), as evaluated in a cell-free assay, to determine whether these compounds can be useful for selective release.
(§2) Assay Conditions: A black 96-well plate with black bottom was charged with solutions of fluorophore-releasing reduction-triggered probes that are compounds of the invention (P1, P2, P3, P4 and P5) or that are not compounds of the invention and reveal the performance of prior art systems (X19) (80 μL; 25 μM in aq. TE buffer (pH 7.4) and 1.25% vol DMSO). Solutions of challenge species chosen from the monothiol glutathione (GSH, 0.1-50 mM) and the dithiol reductant dithiothreitol (DTT, 0.1-50 mM) or phosphine reductant tris-(2-carboxyethyl) phosphine (TCEP); (20 μL; 1 mM in aq. TE buffer (pH 7.4) were added and the reaction mixtures were incubated at 37° C. for 6 h while measuring fluorescence intensity over time [F(t)] using a BMG Labtech FLUOstar Omega platereader (λexc=355 nm, Δem=530 nm for PQ-OH-releasing probes X19, P1 and P2; Δexc=485 nm, Δem=530 nm for MF-OH-releasing probes P3 and P4.
(§3) Data Representation: F^max is the maximum possible fluorescence increase corresponding to complete reduction-triggered cargo release, i.e. the fluorescence intensity increase from time zero to signal plateau under TCEP incubation PQ-OH-releasing probes. F(t)/F^max(t) thus gives the timecourse measurements of fluorescence intensity, as a fraction of the maximum possible fluorescence signal. F^sat is the endpoint fluorescence intensity increase for each condition, ie. F^sat=(F(6 h)). F^sat/F^max thus gives the assay endpoint fluorescence intensity increase, as a fraction of the maximum possible fluorescence signal. In the GSH timecourse measurements shown in FIG. 1, all datasets annotated with concentrations only (0.01-10 mM) refer to GSH challenges, while datasets for TCEP positive control (100 μM) and no-reductant control (blank) are shown for comparison. The dose-response plots show F^sat/F^max for the different ratios between probe and GSH or probe and DTT concentrations, with a logarithmic horizontal scale.

The nature of data set [2]: Chemical reductant assay: DTT challenge (cell-free). Conditions: aq. TE buffer pH 7.4, 37° C., 6 h. Format: physicochemical.
Text: as §1, §2, §3

In data set [3] the test system is HeLa, A549 and MEF cells. In words: Cellular reduction assay (FIG. 3). The class given is cell-based, human, mouse. Conditions: 100 μM, 1% vol DMSO, cells under ordinary conditions. How it is done:
Assay Conditions: Cells were cultured under standard conditions (Gao, L. et al. Cell Chemical Biology 2021, 28, 1-14. https://doi.org/10.1016/j.chembiol.2020.11.007), left to adhere for 24 h, then compounds were added to 100 μM with 1% vol DMSO. Fluorescence timecourse measurements were acquired as in the chemoreductant assay, with all conditions in triplicates.
Data Representation: F(t)-F(0) is the fluorescence intensity signal increase as compared to time zero signal (fluorescence intensity immediately following compound addition, before probe activation can occur), in arbitrary units although with the same detection settings for all probes releasing the same cargo. This corresponds to reduction-triggered cargo release. “ctrf” indicates cells not treated with probes, as a negative control.

The subject of data set [4] is HeLa cells. Nature of the data set: In vitro cell viability assay P21, P22 (resazurin). Format: cell-based, human. Conditions: 48 h. The protocol: (§4) Assay Conditions: Cells (A549 cells for P19 and P20; HeLa cells for P21 and P22) were cultured under standard conditions (Gao, L. et al. Cell Chemical Biology 2021, 28, 1-14. https://doi.org/10.1016/j.chembiol.2020.11.007), left to adhere for 24 h, then P19, P20, P21 or P22 were added from DMSO stock solution and adjusted to 1% vol DMSO. Cells were incubated under standard conditions for 48 h, then 0.20 volume equivalents of a solution of resazurin in PBS (0.15 mg/mL) were added and incubated for 3 hours, then fluorescence (ex 544 nm, em 590 nm) was detected on a fluorescence platereader. Cell viability (%) was calculated relative to a control experiment (no compound) from the fluorescence values.

For data set [5], the system named is MEF cells with genetic knockout of TrxR (TrxR ko). Nature of the data set: In vitro TrxR knockout assay: TrxR1 knockout MEF viability. The class given is cell-based, mouse. Conditions: MEF TrxR ko versus fl/fl, 48 h, resazurin. The protocol:
(§5) Assay Conditions: TrxR1 knockout and reference mouse embryonic fibroblasts (MEF) were a gift by Marcus Conrad (LMU Munich) and initially isolated from conditional TrxR1 knockout mouse embryos, were immortalised by lentiviral transduction. In vitro deletion of TrxR1 was achieved by Tat-Cre induced recombination and verified by PCR and Immunoblotting for TrxR1 as described in Conrad et al. Cancer Res. 2010, 70, 22, 9505. MEF knockout (ko) and control (fl/fl) cells were cultured under standard conditions, left to adhere for 24 h, then P17 or P18 were added from DMSO stock solution and adjusted to 1% vol DMSO. Cells were incubated under standard conditions for 48 h, then 0.20 volume equivalents of a solution of resazurin in PBS (0.15 mg/mL) were added and incubated for 3 h, then fluorescence (ex 544 nm, em 590 nm) was detected on a fluorescence platereader. Cell viability (%) is calculated relative to a control experiment with no P17 or P18 added, from the fluorescence values.

In data set [6] the test system is control MEF cells (fl/fl). In words: In vitro TrxR knockout assay: control MEF (fl/fl) viability. To be noted: Mus musculus, 48 h, resazurin, read-out: IC50 antiproliferation / cell viability. The class given is cell-based. The protocol: as §5
(In general: Alamar Blue is a resazurin reagent that responds to reducing activity.)

Data set [7] relates to A549 cells. In words: In vitro cell viability assay P19, P20 (resazurin). The class given is cell-based, human. Conditions: 48 h. How it is done:
as §4

The results in this text go back to patent publication US20240207414A1, “DISULFIDE-BASED PRODRUG COMPOUND” (Ludwig-Maximilians-Universitat Munchen, priority 2021, published 2024).

Regarding `COc1ccc2c(c1)Oc1cc(OC(=O)N3CCC[C@@H]4CSSC[C@@H]43)ccc1C21OC(=O)c2ccccc21` (mixture of isomers) [Compound P4, 3′-methoxy-3-oxo-3H-spiro[isobenzofuran-1,9′-xanthen]-6′-yl-cis-hexahydro-[1,2]dithiino[4,5-b]pyridine-1(2H)-carboxylate], the “cargo release (fluorescence) when challenged with monothiol reductant GSH” value (“cargo release … with monothiol reductant GSH” for short) in data set [1] is given as “do not release cargo”. For the same compound, in data set [2], the “activation / cargo release by dithiol reductant DTT” value was “efficiently activated by dithiol-type reductants”. Also, the “cargo release inside cells (fluorescence signal increase over time)” value in data set [3] is reported as “do not release cargo inside cells under ordinary conditions”.
As for `O=C(Oc1ccc(Cl)cc1-c1nc2ccc(Cl)cc2c(=O)[nH]1)N1CCN[C@@H]2CSSC[C@H]21` (racemic) [Compound P5, 4-chloro-2-(6-chloro-4-oxo-3,4-dihydroquinazolin-2-yl)phenyl trans-hexahydro-[1,2]dithiino[4,5-b]pyrazine-1(2H)-carboxylate], the “cargo release … with monothiol reductant GSH” value in data set [1] is reported as “does release cargo very efficiently”. For the same compound, in data set [2], the “activation / cargo release by dithiol reductant DTT” value is “unusually strong and fast response”. The “cargo release inside cells (fluorescence signal increase over time)” value in data set [3] is “substantially release cargo inside cells cultured under ordinary conditions”.
As for `CC[C@@]1(O)C(=O)OCc2c1cc1n(c2=O)Cc2cc3c(CN(C)C)c(OC(=O)N4CCCC5CSSC[C@H]54)ccc3nc2-1` (mixture of isomers) [Compound P21, (R)-10-((dimethylamino)methyl)-4-ethyl-4-hydroxy-3,14-dioxo-3,4,12,14-tetrahydro-1H-pyrano[3′,4′:6,7]indolizino[1,2-b]quinolin-9-yl (cis)-hexahydro-[1,2]dithiino[4,5-b]pyridine-1(2H)-carboxylate], in data set [4], the “tolerability in cells compared with Irinotecan” value is “equally well-tolerated in cells as the approved cancer prodrug Irinotecan” and the “toxicity to cells compared with SN-38” value is recorded as “significantly less toxic to cells than the parent compound”.
For `COc1cc2cc(C(=O)N3C[C@@H](CCl)c4c3cc(OC(=O)N3CCN(C(=O)CCC(=O)N5CCN(C)CC5)[C@@H]5CSSCC53)c3ccccc43)[nH]c2c(OC)c1OC` (mixture of isomers) [Compound P18, (S)-1-(chloromethyl)-3-(5,6,7-trimethoxy-1H-indole-2-carbonyl)-2,3-dihydro-1H-benzo[e]indol-5-yl (cis)-4-(4-(4-methylpiperazin-1-yl)-4-oxobutanoyl)hexahydro-[1,2]dithiino[4,5-b]pyrazine-1(2H)-carboxylate], the “activation / cytotoxicity in TrxR ko cells compared to control cells” value in data set [5] is recorded as “activated less effectively”. Also, the IC50 in data set [6] is approximately 100 nM.
In the case of `CCc1c2c(nc3ccc(OC(=O)N4CCN(C(=O)CCC(=O)N5CCN(C)CC5)[C@@H]5CSSC[C@@H]54)cc13)-c1cc3c(c(=O)n1C2)COC(=O)[C@]3(O)CC` (racemic) [Compound P20, (R)-4,11-diethyl-4-hydroxy-3,14-dioxo-3,4,12,14-tetrahydro-1H-pyrano[3′,4′:6,7]indolizino[1,2-b]quinolin-9-yl (cis)-4-(4-(4-methylpiperazin-1-yl)-4-oxobutanoyl)hexahydro-[1,2]dithiino[4,5-b]pyrazine-1(2H)-carboxylate], in data set [7], the “tolerability in cells compared with Irinotecan” value is on record as “equally well-tolerated in cells as the approved cancer prodrug Irinotecan” and the “toxicity to cells compared with SN-38” value was “significantly less toxic to cells than the parent compound”.
As to `COc1cc2cc(C(=O)N3C[C@@H](CCl)c4c3cc(OC(=O)N3CCN(C)[C@@H]5CSSCC53)c3ccccc43)[nH]c2c(OC)c1OC` (mixture of isomers) [Compound P17, (S)-1-(chloromethyl)-3-(5,6,7-trimethoxy-1H-indole-2-carbonyl)-2,3-dihydro-1H-benzo[e]indol-5-yl (cis)-4-methylhexahydro-[1,2]dithiino[4,5-b]pyrazine-1(2H)-carboxylate], in data set [5], the “activation / cytotoxicity in TrxR ko cells compared to control cells” value is “activated less effectively”. Besides, in data set [6], the IC50 was approximately 100 nM.
For `CCc1c2c(nc3ccc(OC(=O)N4CCN[C@@H]5CSSC[C@@H]54)cc13)-c1cc3c(c(=O)n1C2)COC(=O)[C@]3(O)CC` (racemic) [Compound P19, (R)-4,11-diethyl-4-hydroxy-3,14-dioxo-3,4,12,14-tetrahydro-1H-pyrano[3′,4′:6,7]indolizino[1,2-b]quinolin-9-yl (cis)-hexahydro-[1,2]dithiino[4,5-b]pyrazine-1(2H)-carboxylate], in data set [7], the “tolerability in cells compared with Irinotecan” value is on record as “equally well-tolerated in cells as the approved cancer prodrug Irinotecan” and the “toxicity to cells compared with SN-38” value was “significantly less toxic to cells than the parent compound”.
`CC[C@@]1(O)C(=O)OCc2c1cc1n(c2=O)Cc2cc3c(CN(C)C)c(OC(=O)N4CCCC5CSSC[C@@H]54)ccc3nc2-1` (mixture of isomers) [Compound P22, (R)-10-((dimethylamino)methyl)-4-ethyl-4-hydroxy-3,14-dioxo-3,4,12,14-tetrahydro-1H-pyrano[3′,4′:6,7]indolizino[1,2-b]quinolin-9-yl (trans)-hexahydro-[1,2]dithiino[4,5-b]pyridine-1(2H)-carboxylate]: in data set [4], the “tolerability in cells compared with Irinotecan” value is reported as “equally well-tolerated in cells as the approved cancer prodrug Irinotecan” and the “toxicity to cells compared with SN-38” value is “significantly less toxic to cells than the parent compound”.
As for `COc1ccc2c(c1)Oc1cc(OC(=O)N3CCC[C@@H]4CSSC[C@H]43)ccc1C21OC(=O)c2ccccc21` (mixture of isomers) [Compound P3, 3′-methoxy-3-oxo-3H-spiro[isobenzofuran-1,9′-xanthen]-6′-yl-(trans)-hexahydro-[1,2]dithiino[4,5-b]pyridine-1(2H)-carboxylate], the “cargo release … with monothiol reductant GSH” value in data set [1] is “do not release cargo”. Further, the “activation / cargo release by dithiol reductant DTT” value in data set [2] was “efficiently activated by dithiol-type reductants”.
